Laboratory results published in patent US4060527A, “Pyrido[2,3-c]-acridine-1-hydroxy-2-carboxylic acid derivatives” (Fuji Chemical Industries, Ltd., priority 1975, dated 1977).
≈ marks a conversion by molar mass, not a printed value. Read-outs that look alike come from different tables or passages of the source.

Columns and labels:
[1] = tested on: Staphylococcus aureus; assay: Antibacterial activity (MIC) against Staphylococcus aureus as Gram-positive bacterium; assay type: cell-based; conditions: Table 3, class symbols; for MIC: Staphylococcus aureus, read-out: Antibacterial Activity (MIC) Staph. aureus
Protocol: (§1) Some of the compounds of this invention were tested as to their antibacterial activity (MIC, mcg/ml) against Staph. aureus as Gram-positive bacterium and E. coli as Gram-negative bacterium. In the table, the antibacterial activity of 0.09 to 1.25 mcg/ml. is indicated as A1, and the antibacterial activity of more than 1.25 mcg/ml. and not more than 2.5 mcg/ml. is indicated as A2.

[2] = tested on: Escherichia coli; assay: Antibacterial activity (MIC) against Escherichia coli as Gram-negative bacterium; assay type: cell-based; conditions: Table 3, class symbols; for MIC: Escherichia coli, read-out: Antibacterial Activity (MIC) E. coli
Protocol: as §1

[3] = tested on: Staphylococcus aureus; assay: Antibacterial activity (MIC) against Staphylococcus aureus as Gram-positive bacterium; assay type: cell-based; conditions: for MBC: Table 1, bacteriocidal, read-out: Staphylococcus aureus bacteriocidal action; for MIC: Table 1, bacteriostatic, read-out: Staphylococcus aureus bacteriostatic action (MIC)
[4] = tested on: Escherichia coli; assay: Antibacterial activity (MIC) against Escherichia coli as Gram-negative bacterium; assay type: cell-based; conditions: for MBC: Table 1, bacteriocidal, read-out: Escherichia coli bacteriocidal action; for MIC: Table 1, bacteriostatic, read-out: Escherichia coli bacteriostatic action (MIC)
[5] = in vivo; conditions: mouse
[6] = Acute toxicity LD50 on mouse; conditions: in vivo

| SMILES | MIC [1] | MIC [2] | other results |
| --- | --- | --- | --- |
| O=C(O)c1cnc2ccc3cc4cc(CO)ccc4nc3c2c1O [Compound F-895, Pyrido[2,3-c]-acridine-1-hydroxy-9-hydroxymethyl-2-carboxylic acid] | 1.25 to 2.5 mg/L (≈ 3.9 to 7.81 µM) | 0.09 to 1.25 mg/L (≈ 0.281 to 3.9 µM) |  |
| O=C(O)c1cnc2c(CO)cc3cc4ccccc4nc3c2c1O [Compound F-893, Pyrido[2,3-c]-acridine-1-hydroxy-5-hydroxymethyl-2-carboxylic acid] | 1.25 to 2.5 mg/L (≈ 3.9 to 7.81 µM) | 0.09 to 1.25 mg/L (≈ 0.281 to 3.9 µM) |  |
| CCc1c2ccccc2nc2c1ccc1ncc(C(=O)O)c(O)c12 [Compound F-635] | 0.09 to 1.25 mg/L (≈ 0.283 to 3.93 µM) | 0.09 to 1.25 mg/L (≈ 0.283 to 3.93 µM) | MBC [3]: 0.62 mg/L (≈ 1.95 µM); MIC [3]: 0.62 mg/L (≈ 1.95 µM); MBC [4]: 1.25 mg/L (≈ 3.93 µM); MIC [4]: 1.25 mg/L (≈ 3.93 µM); LD50 ([5]; iv): 186 mg/kg; LD50 ([5]; po): > 5000 mg/kg; LD50 ([6]; sc): > 3000 mg/kg |
| O=C(O)c1cnc2ccc3c(O)c4ccccc4nc3c2c1O [Compound F-930, Pyrido[2,3-c]-1,7-dihydroxy-2-carboxylic acid] | 0.09 to 1.25 mg/L (≈ 0.294 to 4.08 µM) | 0.09 to 1.25 mg/L (≈ 0.294 to 4.08 µM) |  |
| O=C(O)c1ccc2nc3c(ccc4ncc(C(=O)O)c(O)c43)cc2c1 [Compound F-935, Pyrido[2,3-c]-1-hydroxy-2,9-dicarboxylic acid] | 1.25 to 2.5 mg/L (≈ 3.74 to 7.48 µM) | 1.25 to 2.5 mg/L (≈ 3.74 to 7.48 µM) |  |
| O=C(O)c1cnc2ccc3c(Br)c4ccccc4nc3c2c1O [Compound F-841, Pyrido[2,3-c]-acridine-1-hydroxy-7-bromo-2-carboxylic acid] |  | 0.09 to 1.25 mg/L (≈ 0.244 to 3.39 µM) |  |
| Nc1c2ccccc2nc2c1ccc1ncc(C(=O)O)c(O)c12 [Compound F-849, Pyrido[2,3-c]-acridine-1-hydroxy-7-amino-2-carboxylic acid] | 1.25 to 2.5 mg/L (≈ 4.09 to 8.19 µM) | 1.25 to 2.5 mg/L (≈ 4.09 to 8.19 µM) |  |
| O=C(O)c1cnc2ccc3cc4ccccc4nc3c2c1O [Compound F-631] | 0.09 to 1.25 mg/L (≈ 0.31 to 4.31 µM) | 0.09 to 1.25 mg/L (≈ 0.31 to 4.31 µM) | MBC [3]: 1.25 mg/L (≈ 4.31 µM); MIC [3]: 1.25 mg/L (≈ 4.31 µM); MBC [4]: 1.25 mg/L (≈ 4.31 µM); MIC [4]: 1.25 mg/L (≈ 4.31 µM); LD50 ([5]; iv): 230 mg/kg; LD50 ([5]; po): > 5000 mg/kg; LD50 ([6]; sc): > 3000 mg/kg |
| CC(=O)OCCNc1c2ccccc2nc2c1ccc1ncc(C(=O)O)c(O)c12 [Compound F-926, Pyrido[2,3-c]-acridine-1-hydrox-7-acetoxyethylamino-2-carboxylic acid] |  |  | Antibacterial Activity (MIC) Staph. aureus [1]: A1 (antibacterial activity of 0.09 to 1.25 mcg/ml.); Antibacterial Activity (MIC) E. coli [2]: A1 (antibacterial activity of 0.09 to 1.25 mcg/ml.) |
| CCn1cc(C(=O)O)c(=O)c2ccc(C)nc21 [Nalidixic acid, reference compound] |  |  | MIC [3]: 125 mg/L (≈ 538 µM); MBC [4]: 6.25 mg/L (≈ 26.9 µM); MIC [4]: 6.25 mg/L (≈ 26.9 µM); LD50 ([6]; iv): 176 mg/kg; LD50 ([6]; po): 3300 mg/kg; LD50 ([6]; sc): 500 mg/kg |
| O=C(O)c1cnc2ccc3cc4cc(O)ccc4nc3c2c1O [Compound F-931, Pyrido[2,3-c]-1,9-dihydroxy-2-carboxylic acid] | 0.09 to 1.25 mg/L (≈ 0.294 to 4.08 µM) | 0.09 to 1.25 mg/L (≈ 0.294 to 4.08 µM) |  |
| CSc1c2ccccc2nc2c1ccc1ncc(C(=O)O)c(O)c12 [Compound F-877, Pyrido[2,3-c]-acridine-1-hydroxy-7-methylmercapto-2-carboxylic acid] | 0.09 to 1.25 mg/L (≈ 0.268 to 3.72 µM) | 0.09 to 1.25 mg/L (≈ 0.268 to 3.72 µM) |  |
| O=C(O)c1cnc2ccc3c(-c4ccc(I)cc4)c4ccccc4nc3c2c1O [Compound F-789, Pyrido[2,3-c]-acridine-1-hydroxy-7-p-iodophenyl-2-carboxylic acid] | 0.09 to 1.25 mg/L (≈ 0.183 to 2.54 µM) | 0.09 to 1.25 mg/L (≈ 0.183 to 2.54 µM) |  |
| O=C(O)c1cnc2ccc3cc4ccc(N(CO)CO)cc4nc3c2c1O [Compound F-916, Pyrido[2,3-c]-acridine-1-hydroxy-10-di-(hydroxymethyl)amino-2-carboxylic acid] | 0.09 to 1.25 mg/L (≈ 0.246 to 3.42 µM) | 0.09 to 1.25 mg/L (≈ 0.246 to 3.42 µM) |  |
| CNc1c2ccccc2nc2c1ccc1ncc(C(=O)O)c(O)c12 [Compound F-853, Pyrido[2,3-c]-acridine-1-hydroxy-7-methylamino-2-carboxylic acid] | 0.09 to 1.25 mg/L (≈ 0.282 to 3.91 µM) | 0.09 to 1.25 mg/L (≈ 0.282 to 3.91 µM) |  |
| O=C(O)c1cnc2ccc3cc4cc(N(CO)CO)ccc4nc3c2c1O [Compound F-915, Pyrido[2,3-c]-acridine-1-hydroxy-9-di-(hydroxymethyl)amino-2-carboxylic acid] | 0.09 to 1.25 mg/L (≈ 0.246 to 3.42 µM) | 0.09 to 1.25 mg/L (≈ 0.246 to 3.42 µM) |  |
| CC(=O)OCCNc1ccc2nc3c(ccc4ncc(C(=O)O)c(O)c43)cc2c1 [Compound F-927, Pyrido[2,3-c]-acridine-1-hydroxy-9-acetoxyethylamino-2-carboxylic acid] |  |  | Antibacterial Activity (MIC) Staph. aureus [1]: A1 (antibacterial activity of 0.09 to 1.25 mcg/ml.); Antibacterial Activity (MIC) E. coli [2]: A1 (antibacterial activity of 0.09 to 1.25 mcg/ml.) |
| O=C(O)c1cnc2ccc3c(I)c4ccccc4nc3c2c1O [Compound F-845, Pyrido[2,3-c]-acridine-1-hydroxy-7-iodo-2-carboxylic acid] | 0.09 to 1.25 mg/L (≈ 0.216 to 3 µM) | 0.09 to 1.25 mg/L (≈ 0.216 to 3 µM) |  |
